Experimental data: patent publication US5449667A, “Amidothiophosphate derivative and insecticide, nematocide and acaricide containing the same as active ingredient” (priority 1993, dated 1995)

Experiments:
[1] = system: larvae of Spodoptera litura; assay: Insecticidal activity against larvae of Spodoptera litura; format: in vivo; conditions: 144 h, 4-instar larvae, artificial bait, after six days
Protocol: Biological Test 1 Insecticidal Activity Against Larvae of Spodoptera litura
Emulsifiable concentrates were prepared for each of the present compounds according to the formulation example 1. Thirteen grams of artificial bait for Spodoptera litura were placed in a polyethylene cup (diameter: 11 cm) and impregnated with 2 ml of the emulsifiable concentrate diluted with water (500 ppm). Ten 4-instar larvae of Spodoptera litura were put in the polyethylene cup. After six days, the mortality of the larvae was examined.

Blattella germanica = assay: Insecticidal activity against Blattella germanica; format: in vivo; conditions: 24 h, 0.7 ml of 500 ppm on filter paper, ten male cockroaches, after one day
Protocol: Biological Test 3 Insecticidal Avtivity Against Blattella germanica
(§1) Filter paper of 5.5 cm in diameter was laid in the bottom of a polyethylene cup (diameter: 5.5 cm). After 0.7 ml of a 500 ppm aqueous solution obtained by diluting each emulsifiable concentrate prepared from each of the present compounds according to the formulation example 1 was dropped on the filter paper and approximately 30 mg of sucrose was uniformly scattered and put on the filter paper as bait, ten male cockroaches (Blattella germanica) were left in the cup with a cover. After one day, the mortality was examined for the cockroaches.

Musca domestica = assay: Insecticidal activity against Musca domestica; format: in vivo; conditions: 24 h, 0.7 ml of 500 ppm on filter paper, ten female house flies, after one day
Protocol: Biological Test 4 Insecticidal Activity Against Musca domestica
as §1, with “scattered,” for “scattered”, “female house flies (Musca domestica)” for “male cockroaches (Blattella germanica)”, “flies.” for “cockroaches.”

[2] = system: larvae of Diabrotica undecimpunctata; assay: Insecticidal activity against larvae of Diabrotica undecimpunctata; format: in vivo; conditions: 1 ml of 50 ppm on filter paper, approximately thirty eggs, after eight days
Protocol: Biological Text 5 Insecticidal Activity Against Larvae of Diabrotica undecimpunctata
Filter paper of 5.5 cm in diameter was laid in the bottom of a polyethylene cup (diameter: 5.5 cm). After 1 ml of a 50 ppm aqueous solution obtained by diluting each of the emulsifiable concentrate prepared from each of the present compounds according to the formulation example 1 was dropped on the filter paper and one sprouting corn crop was placed as bait on the paper, approximately thirty eggs of Diabrotica undecimpunctata were left on the filter paper. After eight days, the rate of hatched larvae was examined. The activity were evaluated according to the following criteria:
B: Mortality not less than 90% but less than 100%
C: Mortality less than 90%

root-knot nematodes = assay: Activity against root-knot nematodes; format: in vivo; design: key: -: substantially no root knots; +: several to ten odds root knots; ++: larger number of root knots (heavier damage than +); conditions: 25 ppm active ingredient in soil, tomato root, after four weeks
Protocol: Biological Test 6 Activity Against Root-knot Nematodes
One ml of a 500 ppm aqueous solution of each of the present compounds obtained by diluting each emulsifiable concentrate prepared from each of the present compounds according to the formulation example 1 was mixed with 19 g of soil contaminated with root-knot nematodes (concentration of active ingredient in soil: 25 ppm). After the soil was kept at 27° C. for 24 hours, the root of a tomato plant (approximately two weeks after sprouting) in a cup was covered with the soil and some water was given to the plant. After four weeks, damage to the root of the tomato plant was evaluated according to the following criteria:
-: substantially no root knots
+: several to ten odds root knots
++: larger number of root knots (heavier damage than +)

[3] = system: larvae of Culex pipiens pallens; assay: Insecticidal activity against larvae of Culex pipiens pallens; format: in vivo; conditions: 3.5 ppm active ingredient in water, twenty last-instar larvae, after one day
Protocol: Biological Test 7 Insecticidal Activity Against Larvae of Culex pipiens pallens
Each of emulsifiable concentrates prepared from each of the present compounds according to the formulation example 1 was diluted with water, and 0.7 ml of the diluted solution was added to 100 ml of ion-exchanged water (concentration of active ingredient: 3.5 ppm). Twenty last-instar larvae of Culex pipiens pallens were left in the water. After one day, the activity was evaluated according to the following criteria:
A: Mortality not less than 90%
B: Mortality not less than 10% but less than 90%
C: Mortality less than 10%

Tetranychus cinnabarinus = assay: Activity against Tetranychus cinnabarinus; format: in vivo; design: key: -: substantially no damage; +: little damage; ++: heavy damage; conditions: 500 ppm, 15 ml spray plus 2 ml soil injection, kidney bean, after eight days
Protocol: Biological Test 8 Activity Against Tetranychus cinnabarinus
Ten male mites (Tetranychus cinnabarinus) per leaf were placed on a pot-planted kidney bean (Phasseolus vulgaris: seven days after sowing) and kept in a thermostatic chamber. After six days, 15 ml of a 500 ppm aqueous solution obtained by diluting each emulsifiable concentrate of each of the present compounds according to the formulation example 1 was sprayed in a pot simultaneously with injection of 2 ml of the solution into soil. After eight days, damage to the plant by Tetranychus cinnabarinus was evaluated according to the following criteria:
-: substantially no damage

[4] = Acute toxicity in oral application to mice; conditions: mouse, in vivo, 30 mg/kg, ICR male mice, after seven days
Protocol: Biological Test 9 Acute Toxicity in Oral Application to Mice
Each of the present compound was diluted with corn oil to a predetermined concentration. After subjecting the mice to a twenty-hour fasting, 0.1 ml of the diluted solution per 10 g weight was forcibly applied into the stomach of each ICR male 6-week old mouse (weight: 24 to 31 g). The mice were given food and water four hours after the application and thereafter regularly fed and watered, and kept in a cage. After seven days, the mortality was examined for the mice (4 mice/group).

Row | SMILES | mortality at 500 ppm [1] | mortality at 500 ppm (Blattella germanica) | mortality at 500 ppm (Musca domestica) | Activity [2] | Activity (root-knot nematodes) | Activity [3] | Activity (Tetranychus cinnabarinus) | mortality at 168 h [4]
1 | CCOP(=O)(SC(C)CC)N(CC#N)C(=O)OC (stereo not shown) [Compound 9, O-ethyl S-sec-butyl N-cyanomethyl N-methoxycarbonyl phosphoroamidothiolate] | 100% | 100% | 100% | A (Mortality 100%) | - | A (Mortality not less than 90%) | - | 0%
2 | CCOP(=O)(SC(C)CC)N(CCC#N)C(=O)SC (stereo not shown) [Compound 13] | 100% | 100% | 100% | A (Mortality 100%) | - | A (Mortality not less than 90%) | - | 0%
